Drawing on article PMC10763615, “Identification and engineering of potent cyclic peptides with selective or promiscuous binding through biochemical profiling and bioinformatic data analysis” (RSC Chemical Biology, 2023), this text covers Kd for 7 compounds.

Where two headings read alike, the source gives them in different places. Positions of bridges follow the written chain, without caps; N, C: chain ends. Residues, ends and D or L forms follow the SMILES beside them.

What all share (assay type): binding
The target of one experiment is T1, FGF-R1C ECD (Homo sapiens, UniProt P11362).
T1 sequence (P11362 22-376 limits assumed): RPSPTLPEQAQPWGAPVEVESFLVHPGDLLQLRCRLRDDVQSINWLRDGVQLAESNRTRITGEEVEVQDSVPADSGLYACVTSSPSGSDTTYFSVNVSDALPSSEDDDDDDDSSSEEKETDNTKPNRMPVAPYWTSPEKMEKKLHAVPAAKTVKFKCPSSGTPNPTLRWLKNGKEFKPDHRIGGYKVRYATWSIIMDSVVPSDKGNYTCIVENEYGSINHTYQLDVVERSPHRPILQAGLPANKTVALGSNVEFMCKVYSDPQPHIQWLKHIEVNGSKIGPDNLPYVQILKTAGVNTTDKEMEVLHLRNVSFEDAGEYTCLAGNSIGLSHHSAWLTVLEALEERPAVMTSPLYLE
Put plainly: biochemical. On the set-up: DNA constructs for the extracellular domain (ECD) of human FGF-; HPC4 (C); made in house; host or cells: HEK 293-6E. The method, boiled down:
(§1)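 Biolayer interferometry with biotinylated FGF-R ECD on streptavidin biosensors in PBS pH 7.4, 0.05% Tween-20, 0.01% BSA. Multi-concentration: purified peptide dilution series fitted to a multi-point KD model.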

The target of another experiment is T2, FGF-R3C ECD (Homo sapiens, UniProt P22607).
T2 sequence (P22607 23-375 limits assumed): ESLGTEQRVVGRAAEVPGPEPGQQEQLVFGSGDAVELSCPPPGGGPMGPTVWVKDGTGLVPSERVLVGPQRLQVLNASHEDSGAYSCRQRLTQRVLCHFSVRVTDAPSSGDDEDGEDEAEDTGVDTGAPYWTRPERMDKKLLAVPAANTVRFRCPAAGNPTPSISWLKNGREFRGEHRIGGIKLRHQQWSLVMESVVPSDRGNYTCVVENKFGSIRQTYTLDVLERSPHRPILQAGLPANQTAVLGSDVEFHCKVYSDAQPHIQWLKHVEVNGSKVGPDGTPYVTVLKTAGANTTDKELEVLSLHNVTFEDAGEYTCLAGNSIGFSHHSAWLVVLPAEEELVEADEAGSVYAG
Put plainly: biochemical. More on the design: DNA constructs for the extracellular domain (ECD) of human FGF-; HPC4 (C); made in house; host or cells: HEK 293-6E. The method, boiled down:
as §1

The next experiment has as its target T3, FGF-R4 ECD (Homo sapiens, UniProt P22455).
T3 construct: DNA constructs for the extracellular domain (ECD) of human FGF-; HPC4 (C); made in house; host or cells: HEK 293-6E
T3 sequence (P22455 22-369 limits assumed): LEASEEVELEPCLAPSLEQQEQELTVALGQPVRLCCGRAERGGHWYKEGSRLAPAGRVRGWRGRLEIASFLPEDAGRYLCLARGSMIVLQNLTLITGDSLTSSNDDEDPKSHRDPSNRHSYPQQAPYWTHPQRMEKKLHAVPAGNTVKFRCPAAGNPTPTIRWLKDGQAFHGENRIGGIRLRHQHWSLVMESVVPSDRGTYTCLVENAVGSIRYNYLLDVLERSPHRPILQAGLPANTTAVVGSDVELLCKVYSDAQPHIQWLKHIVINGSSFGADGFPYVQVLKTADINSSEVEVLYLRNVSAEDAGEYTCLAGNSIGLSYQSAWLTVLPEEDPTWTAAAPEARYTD
In words: single concentration BLI of crude peptides. To be noted: read-out: KD (4). The method, boiled down: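 Biotinylated FGF-R ECD on streptavidin biosensors was dipped into ~1 μM crude peptide in PBS pH7.4 with 0.05% Tween-20 and 0.01% BSA for association, then into buffer for dissociation, and followed by BLI. Fitted KD values were adjusted for peptide concentration measured by UPLC-CAD.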

The mark [1] stands for this setting: crude T18 selection 1 (1:1:1) peptides, single concentration BLI (Table S4).

Regarding `CC[C@H](C)[C@@H]1NC(=O)[C@H](Cc2c[nH]cn2)NC(=O)[C@H](CCCCN)NC(=O)[C@H](Cc2ccc(O)cc2)NC(=O)[C@@H](NC(=O)[C@H](CCSC)NC(C)=O)CSSC[C@@H](C(=O)NCC(=O)N[C@@H](CO)C(=O)NCC(=O)N[C@@H](CO)C(=O)N[C@@H](CCC(=O)O)C(=O)N[C@@H](CCC(=O)O)C(=O)NCC(=O)N[C@@H](CO)C(=O)NCC(=O)N[C@@H](CO)C(=O)N[C@@H](CC(=O)O)C(=O)N[C@@H](Cc2ccc(O)cc2)C(=O)N[C@@H](CCCCN)C(=O)N[C@@H](CC(=O)O)C(=O)N[C@@H](CC(=O)O)C(=O)N[C@@H](CC(=O)O)C(=O)N[C@@H](CC(=O)O)C(=O)N[C@@H](CCCCN)C(N)=O)NC(=O)[C@H](CC(C)C)NC(=O)[C@H](CCCCN)NC(=O)[C@H](CCC(N)=O)NC(=O)[C@H]([C@@H](C)CC)NC(=O)[C@H](CCCCN)NC(=O)[C@H](Cc2ccc(O)cc2)NC(=O)[C@H](Cc2c[nH]c3ccccc23)NC(=O)[C@H](CC(C)C)NC1=O` (Ac-MCYKHILWYKIQKLCGSGSEEGSGSDYKDDDDK-NH2; disulfide 2-15), the Kd (usually the free concentration of one partner at which half of the binding sites on the other are occupied at equilibrium, for simple one-to-one binding) was 0.033 µM at FGF-R1C ECD, over 10 µM on FGF-R3C ECD and 0.001 µM at FGF-R4 ECD (setting [1]).

In the case of `CSCC[C@H](NC(C)=O)C(=O)N[C@H]1CSSC[C@@H](C(=O)NCC(=O)N[C@@H](CO)C(=O)NCC(=O)N[C@@H](CO)C(=O)N[C@@H](CC(=O)O)C(=O)N[C@@H](Cc2ccc(O)cc2)C(=O)N[C@@H](CCCCN)C(=O)N[C@@H](CC(=O)O)C(=O)N[C@@H](CC(=O)O)C(=O)N[C@@H](CC(=O)O)C(=O)N[C@@H](CC(=O)O)C(=O)N[C@@H](CCCCN)C(N)=O)NC(=O)[C@H](Cc2c[nH]c3ccccc23)NC(=O)[C@H](CCC(N)=O)NC(=O)[C@H](CCCCN)NC(=O)[C@H](Cc2c[nH]c3ccccc23)NC(=O)[C@H](CC(C)C)NC(=O)[C@H](CC(C)C)NC(=O)[C@H](Cc2ccccc2)NC(=O)[C@H](CC(C)C)NC(=O)[C@H](CCCCN)NC(=O)[C@H](Cc2ccc(O)cc2)NC1=O` (Ac-MCYKLFLLWKQWCGSGSDYKDDDDK-NH2; disulfide 2-13), the Kd was over 10 µM at FGF-R1C ECD; over 10 µM on FGF-R3C ECD; over 10 µM on FGF-R4 ECD (crude NNK peptides, single concentration BLI (Table S3)).

Consider `CC[C@H](C)[C@@H]1NC(=O)[C@H](CC(N)=O)NC(=O)[C@H](CCCCN)NC(=O)[C@H](Cc2ccc(O)cc2)NC(=O)[C@@H](NC(=O)[C@H](CCSC)NC(C)=O)CSSC[C@@H](C(=O)NCC(=O)N[C@@H](CO)C(=O)NCC(=O)N[C@@H](CO)C(=O)N[C@@H](CC(=O)O)C(=O)N[C@@H](Cc2ccc(O)cc2)C(=O)N[C@@H](CCCCN)C(=O)N[C@@H](CC(=O)O)C(=O)N[C@@H](CC(=O)O)C(=O)N[C@@H](CC(=O)O)C(=O)N[C@@H](CC(=O)O)C(=O)N[C@@H](CCCCN)C(N)=O)NC(=O)[C@H](Cc2ccccc2)NC(=O)[C@H](C(C)C)NC(=O)[C@H](CC(C)C)NC(=O)[C@H](C(C)C)NC(=O)CNC(=O)[C@H](CC(N)=O)NC(=O)[C@H](CC(=O)O)NC1=O` (Ac-MCYKNIDNGVLVFCGSGSDYKDDDDK-NH2; disulfide 2-14), for which the Kd on FGF-R1C ECD is over 10 µM; on FGF-R3C ECD, over 10 µM; on FGF-R4 ECD (setting [1]) it was 0.014 µM.

`CSCC[C@H](NC(C)=O)C(=O)N[C@H]1CSSC[C@@H](C(=O)NCC(=O)N[C@@H](CO)C(=O)NCC(=O)N[C@@H](CO)C(=O)N[C@@H](CC(=O)O)C(=O)N[C@@H](Cc2ccc(O)cc2)C(=O)N[C@@H](CCCCN)C(=O)N[C@@H](CC(=O)O)C(=O)N[C@@H](CC(=O)O)C(=O)N[C@@H](CC(=O)O)C(=O)N[C@@H](CC(=O)O)C(=O)N[C@@H](CCCCN)C(N)=O)NC(=O)[C@H](Cc2c[nH]c3ccccc23)NC(=O)[C@H](CC(C)C)NC(=O)[C@H](CCCNC(=N)N)NC(=O)[C@H](Cc2ccc(O)cc2)NC(=O)[C@H](CC(C)C)NC(=O)[C@H](Cc2c[nH]c3ccccc23)NC(=O)[C@H](CC(C)C)NC(=O)[C@H](CC(=O)O)NC(=O)[C@H](CCCCN)NC(=O)[C@H](CO)NC(=O)[C@H](Cc2ccc(O)cc2)NC(=O)[C@H](CCCCN)NC(=O)[C@H](Cc2ccc(O)cc2)NC1=O` (Ac-MCYKYSKDLWLYRLWCGSGSDYKDDDDK-NH2; disulfide 2-16): the Kd was 0.502 µM on FGF-R1C ECD, over 10 µM on FGF-R3C ECD and 0.022 µM on FGF-R4 ECD (setting [1]).

Consider `CC[C@H](C)[C@@H]1NC(=O)[C@H](CC(N)=O)NC(=O)[C@H](Cc2ccc(O)cc2)NC(=O)[C@@H](NC(=O)[C@H](CCSC)NC(C)=O)CSSC[C@@H](C(=O)NCC(=O)N[C@@H](CO)C(=O)NCC(=O)N[C@@H](CO)C(=O)N[C@@H](CC(=O)O)C(=O)N[C@@H](Cc2ccc(O)cc2)C(=O)N[C@@H](CCCCN)C(=O)N[C@@H](CC(=O)O)C(=O)N[C@@H](CC(=O)O)C(=O)N[C@@H](CC(=O)O)C(=O)N[C@@H](CC(=O)O)C(=O)N[C@@H](CCCCN)C(N)=O)NC(=O)[C@H](CCC(=O)O)NC(=O)[C@H](CCCNC(=N)N)NC(=O)[C@H](CCCNC(=N)N)NC(=O)[C@H](C(C)C)NC(=O)[C@H](Cc2ccc(O)cc2)NC(=O)[C@H](CCCCN)NC(=O)[C@H](Cc2ccc(O)cc2)NC(=O)[C@H](Cc2c[nH]c3ccccc23)NC(=O)[C@H](Cc2ccc(O)cc2)NC1=O` (Ac-MCYNIYWYKYVRRECGSGSDYKDDDDK-NH2; disulfide 2-15), for which the values for the Kd at FGF-R1C ECD, on FGF-R3C ECD and at FGF-R4 ECD (setting [1]) were 0.387 µM, over 10 µM and 0.001 µM, respectively.

As to `CSCC[C@H](NC(C)=O)C(=O)N[C@H]1CSSC[C@@H](C(=O)NCC(=O)N[C@@H](CO)C(=O)NCC(=O)N[C@@H](CO)C(=O)N[C@@H](CC(=O)O)C(=O)N[C@@H](Cc2ccc(O)cc2)C(=O)N[C@@H](CCCCN)C(=O)N[C@@H](CC(=O)O)C(=O)N[C@@H](CC(=O)O)C(=O)N[C@@H](CC(=O)O)C(=O)N[C@@H](CC(=O)O)C(=O)N[C@@H](CCCCN)C(N)=O)NC(=O)[C@@H]2CCCN2C(=O)[C@H](CCC(N)=O)NC(=O)[C@H](Cc2c[nH]c3ccccc23)NC(=O)[C@H](CCC(=O)O)NC(=O)[C@H](CCC(=O)O)NC(=O)[C@H]([C@@H](C)O)NC(=O)[C@H](Cc2c[nH]c3ccccc23)NC(=O)[C@H](Cc2ccccc2)NC(=O)[C@H](CCCNC(=N)N)NC(=O)[C@H]([C@@H](C)O)NC(=O)[C@H](Cc2ccc(O)cc2)NC1=O` (Ac-MCYTRFWTEEWQPCGSGSDYKDDDDK-NH2; disulfide 2-14), the Kd at FGF-R1C ECD, at FGF-R3C ECD and on FGF-R4 ECD (setting [1]) was over 10 µM in each case.

As for `CSCC[C@H](NC(C)=O)C(=O)N[C@H]1CSSC[C@@H](C(=O)NCC(=O)N[C@@H](CO)C(=O)NCC(=O)N[C@@H](CO)C(=O)N[C@@H](CC(=O)O)C(=O)N[C@@H](Cc2ccc(O)cc2)C(=O)N[C@@H](CCCCN)C(=O)N[C@@H](CC(=O)O)C(=O)N[C@@H](CC(=O)O)C(=O)N[C@@H](CC(=O)O)C(=O)N[C@@H](CC(=O)O)C(=O)N[C@@H](CCCCN)C(N)=O)NC(=O)[C@H](CCC(N)=O)NC(=O)[C@H](Cc2c[nH]cn2)NC(=O)[C@H](Cc2c[nH]c3ccccc23)NC(=O)[C@H](CC(C)C)NC(=O)[C@H](C)NC(=O)[C@H](CCC(=O)O)NC(=O)[C@H](Cc2ccc(O)cc2)NC(=O)[C@@H]2CCCN2C(=O)[C@H](Cc2c[nH]cn2)NC(=O)[C@H](CCCNC(=N)N)NC(=O)[C@H]([C@@H](C)O)NC(=O)[C@H](Cc2ccc(O)cc2)NC1=O` (Ac-MCYTRHPYEALWHQCGSGSDYKDDDDK-NH2; disulfide 2-15), the Kd at FGF-R1C ECD, at FGF-R3C ECD and at FGF-R4 ECD (setting [1]) was over 10 µM throughout.
